US20260240810A1, “COMPOSITIONS AND METHODS FOR REDUCING ADVERSE SIDE EFFECTS IN CANCER TREATMENT” (priority 2022, published 2026)

Experiments:
hemoglobin = biological target: T1, hemoglobin (Homo sapiens, UniProt P68871); experiment: 14C-RRx-001 binding to hemoglobin in blood; settings: blood of rats, dogs, monkeys, humans; liquid scintillation counter
T1 construct: blood not pooled from 3 individual male humans; from tissue; host or cells: whole blood of 3 individual male humans
Protocol: ^14C-RRx-001 (1 μM and 20 μM) was incubated at a temperature of 37° C. for a time period of 30 minutes with blood pooled from 3 male Sprague Dawley rats, 3 male beagle dogs, and 2 male cynomolgus monkeys, and blood not pooled from 3 individual male humans. […] The range of binding to the 3 different human hemoglobin varied from 24% to 34%.

[1] = Repeated-dose toxicity study in rats; type: in vivo; settings: 3 times/week up to 4 weeks
Protocol: Repeated-dose toxicity studies of RRx-001 (3 times/week up to 4 weeks in duration) were conducted in rats at dose levels of 12 mg/kg, 20.1 mg/kg, and 30 mg/kg per day and in dogs at dose levels of 4 mg/kg, 8 mg/kg, and 12 mg/kg per day (due to clinical signs, the 8 mg/kg and 12 mg/kg doses were reduced to 3 mg/kg and 5 mg/kg on Day 4). The no observed adverse effect level was <12 mg/kg in rats and 5 mg/kg in dogs.

[2] = test system: severe oral mucositis in patients receiving head and neck chemoradiotherapy; experiment: PREVLAR Phase 2a trial: oral mucositis in patients receiving cisplatin + IMRT; type: in vivo, human; settings: for Median SOM duration: all patients, baseline to last day of radiation, 0 days if never SOM; for percent of SOM visits: minimum 65 Gy cumulative radiation; for median duration of SOM: only patients who developed SOM, onset to last visit with SOM
Protocol: Referring to FIG. 1, FIG. 1 is a table 100 showing a trial in which RRx-001 was tested in various groups of patients that were being treated for cancer with a combination of chemotherapy and IMRT. The various groups were divided into “Arms” based on a treatment: • Arm 1. pretreatment with 4 mg RRx-001 2 times per week for 2 weeks followed by 40 mg/m^2 each week or 100 mg/m^2 once every 3 weeks cisplatin+IMRT. • Arm 2. pretreatment with 4 mg RRx-001 2 times per week for 2 weeks followed by cotreatment with 4 mg RRx-001 2 times once on week 2 and once on week 5+40 mg/m^2 each week or 100 mg/m^2 once every 3 weeks cisplatin+IMRT. • Arm 3. pretreatment with 4 mg RRx-001 2 times per week for 2 weeks followed by cotreatment with 4 mg RRx-001 […]+40 mg/m^2 each week or 100 mg/m^2 once every 3 weeks cisplatin+IMRT. • Arm 4. standard of care 40 mg/m^2 each week or 100 mg/m^2 once every 3 weeks cisplatin+IMRT without RRx-001.
Accordingly, patients in Arm 1 of the study were administered a pretreatment of RRx-001 over a 2-week period. No RRx-001 was administered to the patients following the pretreatment period. Following the 2-week pretreatment period, the therapeutic agent comprising cisplatin and IMRT was administered to the patients over a 6-week period.
Patients in Arm 2 of the study were likewise administered a pretreatment of RRx-001 over a 2-week period. But RRx-001 was further administered at a low dose concurrently with cisplatin and IMRT over the 6-week period following the pretreatment period.
Arm 4 of the study was the control or standard of care (SOC). No RRx-001 was administered to the patients in Arm 4 of the study and there was no pretreatment period. All patients received the same amounts of cisplatin and IMRT for Arm 1, Arm2, Arm 3, and Arm 4 of the study. Patients in the study had the option to stop or refuse treatment at any time and not all patients finished the entire treatment.
Example 2 is a Phase 2a randomized, multi-institutional (n=13, of which 12 enrolled), open-label/unblinded, controlled trial in which patients were centrally randomized into four groups (“Arms”), with approximately 10 patients per Arm (or group) before the start of CRT, stratified by oropharynx versus oral cavity site. See M. Bonomi, et al. (2023) Int. J. Radiat. Oncol. Biol. Phys. 116(3): p. 551-559.
Study participants were adults (>18 years) with pathologically diagnosed stage III to IVB locally advanced (nonmetastatic) squamous cell carcinoma of the oral cavity or oropharynx that were scheduled to receive definitive or postoperative daily fractionation IMRT of 2.0 Gy to 2.2 Gy for a total dose of 60 Gy to 72 Gy with concomitant cisplatin given as either weekly (40 mg/m^2) or tri-weekly (100 mg/m^2) infusions. Radiation fields included at least 2 oral sites at risk of OM (e.g., buccal mucosa, floor of mouth, lateral/ventral tongue, or soft palate), which were planned to receive a minimum cumulative dose of 55 Gy. […] Patients received a pretreatment evaluation including complete history, dental assessment, physical examination, complete blood count and complete metabolic profile, hematology and biochemistry profiles, optional laryngoscopy, chest computed tomography (CT) or positron emission tomography (PET)/CT, CT, and a magnetic resonance imaging (MRI) or PET/CT of the tumor site and neck nodes.
Arms 1 to 3 received twice weekly infusions of RRx-001, 4 mg/dose after a premedication dose of dexamethasone (10 mg) for the 2 weeks preceding the start of CRT. Patients in Arm 2 received two additional 4 mg doses of RRx-001 after being premedicated with dexamethasone in weeks 2 and 5 of their CRT regimen. Patients in Arm 3 received weekly RRx-001 (4 mg after dexamethasone pre-dosing) during the first 6 weeks of CRT. Treatment was completed on the last day of radiation therapy (LDRT).
The treatment phase commenced 2 weeks before the start of CRT and continued until the LDRT. […]

[3] = Arm 1: RRx-001 pretreatment + SOC chemoradiation

T1 sequence (P68871 2-147 limits assumed): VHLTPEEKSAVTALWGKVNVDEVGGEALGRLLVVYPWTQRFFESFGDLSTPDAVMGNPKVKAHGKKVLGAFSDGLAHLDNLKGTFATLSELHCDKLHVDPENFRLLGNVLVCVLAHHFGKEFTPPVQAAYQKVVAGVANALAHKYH
T1 sequence (P69905 2-142 partner limits assumed): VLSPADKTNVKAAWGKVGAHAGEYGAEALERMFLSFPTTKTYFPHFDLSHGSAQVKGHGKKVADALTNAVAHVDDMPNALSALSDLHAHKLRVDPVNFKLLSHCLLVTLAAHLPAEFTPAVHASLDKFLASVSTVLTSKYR

SMILES: O=C(CBr)N1CC([N+](=O)[O-])([N+](=O)[O-])C1 [RRx-001, 2-bromo-1-(3,3-dinitroazetidin-1-yl) ethan-1-one]
- partitioning of radioactivity in blood (hemoglobin): highly partition into red blood cells and covalently bind to hemoglobin
- no observed adverse effect level [1]: < 12 mg/kg
- estimate (averaged across all visits) MMRM probability of SOM ([2]; (pooled) RRx-001 treatment): 15.3%
- incidence of SOM (any WHO score ≥3 between baseline to the last day of radiation) ([2]; Arm 1): 83.3%
- patients with at least one day of Grade 4 OM between the first and LDRT ([2]; Arm 1): 23.1%
- percent of visits with most severe forms (Grade 4) mucositis ([2]; Arm 1): 3.3%
- decrease in duration of SOM through 60 Gy vs. Arm 4 ([2]; Arm 1: 4 mg RRx-001 2 times per week for 2 weeks pretreatment, then cisplatin+IMRT): 16 days
- average days longer than Arm 4 before onset of SOM from start of chemotherapy [2, 3]: 12 days
- decrease in SOM duration following treatment of IMRT compared to Arm 4 [2, 3]: 18 days
- Median SOM duration ([2]; Arm 1): 5 days
- percent of SOM visits ([2]; Arm 1): 23.6%
- median duration of SOM ([2]; Arm 1): 8.5 days
- incidence of SOM (any WHO score ≥3 between baseline to the last day of radiation) ([2]; Arm 2): 70%
- patients with at least one day of Grade 4 OM between the first and LDRT ([2]; Arm 2): 40%
- percent of visits with most severe forms (Grade 4) mucositis ([2]; Arm 2): 12.2%
- incidence of grade 4 OM through 60 Gy ([2]; Arm 2: RRx-001 pretreatment + 2 concurrent doses + SOC chemoradiation): 40%
- Median SOM duration ([2]; Arm 2): 13.5 days
- percent of SOM visits ([2]; Arm 2): 22.2%
- median duration of SOM ([2]; Arm 2): 17 days
- incidence of SOM (any WHO score ≥3 between baseline to the last day of radiation) ([2]; Arm 3): 76.9%
- patients with at least one day of Grade 4 OM between the first and LDRT ([2]; Arm 3): 46.2%
- percent of visits with most severe forms (Grade 4) mucositis ([2]; Arm 3): 7.7%
- incidence of grade 4 OM through 60 Gy ([2]; Arm 3: RRx-001 pretreatment + 6 concurrent doses + SOC chemoradiation): 46%
- Median SOM duration ([2]; Arm 3): 8 days
- percent of SOM visits ([2]; Arm 3): 25.7%
- median duration of SOM ([2]; Arm 3): 10 days
- Odds ratio estimate ([2]; MMRM analysis of SOM, contrast SOC alone / (Pooled RRx-001)): 3.24
- SOM Probability (averaged across all visits) ([2]; MMRM analysis, pooled RRx-001-treated patients): 0.153
- aggregate percent of SOM visits ([2]; active arms, patients with minimum 65 Gy cumulative radiation): 23.9%
- incidence of SOM through the short-term follow-up period ([2]; active patients): 80%
- SOM incidence by the last dose of radiotherapy (LDRT) ([2]; aggregate active Arms, about 72 Gy): 77.1%
- patients exhibiting SOM ([2]; patients who received RRx-001 (treated Arms), cumulative RT dose 45 Gy): 42.9%
- patients exhibiting SOM ([2]; treated Arms, 55 Gy): 57.1%
- patients exhibiting SOM ([2]; treated Arms, 65 Gy): 71.4%
